The Papp A→B is the apparent permeability from the apical to the basolateral side of a cell layer. A word on the Papp B→A: it is the apparent permeability from the basolateral to the apical side of a cell layer.

One series deals with Caco-2 cell monolayers. The series is described as follows: Transport of PTF constituents across Caco-2 cell monolayers (LC-MS quantification). Also on record: efflux ratio at 180 min / Papp A→B at 180 min: dose or concentration left out as unconfirmed. It counts as in vitro ADME, human. Particulars: for change of transport with tight junction modulators SDS and PLL: SDS and PLL 50 μg/mL; for PDR (ratio of P app BL→AP to P app AP→BL): compound in PTF 1.00 mg/mL; for change of transport (P app) in presence of indomethacin: indomethacin 10 μM (MRPs/OATP inhibitor); for change of transport (P app) in presence of indomethacin / change of transport (P app) in presence of phloridzin / change of transport (P app) in presence of verapamil: PTF 1.00 mg/mL, 120 min; for change of transport (P app) in presence of phloridzin: phloridzin 50 μM (SGLT1 inhibitor); for change of transport (P app) in presence of verapamil: verapamil 100 μM (P-gp inhibitor). As for the experimental part:
(§1) When cells were cultured to 80% confluence, they were seeded in 12-well Transwell-Clear plates at a density of 1.2 × 10^5 cells/insert. Cells were cultured for 21 days to reach confluence and functional differentiation. Complete medium was replaced every 2 days for the first 2 weeks and daily renewed for the last 7 days. All cells were between passages 35 and 55. […] After 21-day culture, the complete medium was removed and the monolayer was washed three times and balanced with HBSS (previously warmed to 37°C) for 30 min. […] […] All samples were dried with organomation. Before analyzing, the dry samples were dissolved in methanol/water/acetic acid (200 : 200 : 1, v/v/v) and the insoluble substance was eliminated with centrifugation 12000 rpm for 5 min. Protein inhibitors including verapamil (100 μM), indomethacin (10 μM), and phloridzin (50 μM) were employed to investigate the role of different transporters. Epithelial tight junction modulators such as SDS (50 μg/mL) and PLL (50 μg/mL) were used to evaluate the role of paracellular permeability. Hydrophilic marker sodium fluorescein (0.6 mg/mL) was used for the evaluation of the integrity of the cell monolayer. […] The column temperature was 20°C and the injection volume was 20 μL. MS/MS analysis was acquired using an Agilent 6410 triple quadrupole mass spectrometer (Agilent Technologies, CA, USA) equipped with an electrospray ionisation (ESI) in the negative mode. Other analytical conditions included the drying gas temperature of 300°C, the drying gas flow of 11 L/min, the nebulizer pressure of 35 psi, and the capillary voltage of 4 kV. To get the highest abundance, the fragmentor voltage and collision energy were optimized. Data acquisition and processing were accepted by Agilent Mass Hunter workstation software version B.05.00 using multiple reaction monitoring (MRM). The quantification was performed using external standard method. […] Here, dC/dt is the change in concentration on the receiver side over time; V is the volume of the solution in the receiver chamber; A is the surface area of the cell monolayer; C 0 is the initial concentration in the donor chamber. PDR is the ratio of P app(BL→AP) to P app(AP→BL).
For orientation: Caco-2 monolayers are a common model of the intestinal barrier.

Experiment in series [1]: as above
It counts as in vitro ADME, human. Also on record: efflux ratio at 180 min / Papp A→B at 180 min: dose or concentration left out as unconfirmed. The following applies: human, Caco-2, 180 min; for efflux ratio at 180 min: read-out: PDR (ratio of P app BL→AP to P app AP→BL). On the procedure:
as §1

On the set-up of series [2]: method as in earlier work. Particulars: rats, oral PTF 6 g/kg; cited from earlier work.
In another series the test system is Caco-2 cell monolayer. Also on record: method as in PMID 14646189. Particulars: pure compound; cited from earlier work.
[3] abbreviates: compound in PTF 1.00 mg/mL, mean ± SEM (n = 3).

For the compound `O=c1oc2c(O)c(O)cc3c(=O)oc4c(O)c(O)cc1c4c23` [Ellagic acid], in the series on Caco-2 cell monolayers, the “change of transport with tight junction modulators SDS and PLL” value is given as “greatly improved”; the “change of transport (P app) in presence of indomethacin” value was “strongly decreased”; the “change of transport (P app) in presence of phloridzin” value is on record as “strongly decreased”; the “change of transport (P app) in presence of verapamil” value is given as “no substantial difference”. Besides, in the series on Caco-2 cell monolayers (compound in PTF), the “absorption transport P app (AP→BL)” value is ~10^−7 cm/s and the “secretion transport P app (BL→AP)” value is on record as ~10^−7 cm/s. Also, the “PDR (ratio of P app BL→AP to P app AP→BL)” value in the series on Caco-2 cell monolayers (180 min) is reported as “less than 1.5”. Moreover, the apical-to-basolateral permeability (Papp A→B) at 180 min in series [1] (mean ± SEM (n = 3)) came out at 0.347 ± 0.018 ×10⁻⁶ cm/s. The efflux ratio at 180 min in series [1] is 1.31. In addition, the Papp B→A at 180 min in series [1] (setting [3]) worked out at 0.456 ± 0.01 ×10⁻⁶ cm/s. Besides, the “peak concentration (C max)” value in series [2] was “lower than 10.47 μg/mL”.
For the compound `O=C([O-])c1ccccc1-c1c2ccc(=O)cc-2oc2cc([O-])ccc12.[Na+].[Na+]` [sodium fluorescein, reference compound], the “P app of marker across the monolayers” value with Caco-2 cell monolayers (sodium fluorescein 0.6 mg/mL, monolayer integrity check) is 3.16 ± 0.25 × 10^−7 cm/s.
In the case of `O=C(O)c1cc(O)c(O)c(O)c1` [Gallic acid], in the series on Caco-2 cell monolayers, the “change of transport with tight junction modulators SDS and PLL” value is “greatly improved”; the “change of transport (P app) in presence of indomethacin” value is on record as “significantly increased”; the “change of transport (P app) in presence of phloridzin” value is “no considerable change”; the “change of transport (P app) in presence of verapamil” value is reported as “significantly increased”. Further, in the series with Caco-2 cell monolayers (compound in PTF), the “secretion transport P app (BL→AP)” value was ~10^−7 cm/s. In addition, the “PDR (ratio of P app BL→AP to P app AP→BL)” value in the series on Caco-2 cell monolayers (180 min) is reported as “more than 1.5”. For the same compound, in series [1] (mean ± SEM (n = 3)), the Papp A→B at 180 min amounted to 0.024 ± 0.004 ×10⁻⁶ cm/s. Besides, the efflux ratio at 180 min in series [1] stood at 4.17. Besides, in series [1] (setting [3]), the apparent permeability from basolateral to apical (Papp B→A) at 180 min was 0.1 ± 0.009 ×10⁻⁶ cm/s. For the same compound, the “peak concentration (C max)” value in series [2] is “lower than 10.47 μg/mL”. Moreover, the “P app of GA across Caco-2 cell monolayer” value with Caco-2 cell monolayer is “about 0.20 × 10^−6 cm/s”.
With `O=C(O[C@@H]1O[C@@H]2COC(=O)c3cc(O)c(O)c(O)c3-c3c(cc(O)c(O)c3O)C(=O)O[C@H]([C@H]1O)[C@@H]2O)c1cc(O)c(O)c(O)c1` [Corilagin], in the series with Caco-2 cell monolayers, the “change of transport with tight junction modulators SDS and PLL” value is recorded as “greatly improved”; the “change of transport (P app) in presence of indomethacin” value is given as “significantly increased”; the “change of transport (P app) in presence of phloridzin” value is recorded as “no considerable change”; the “change of transport (P app) in presence of verapamil” value is recorded as “significantly increased”. For the same compound, the “PDR (ratio of P app BL→AP to P app AP→BL)” value with Caco-2 cell monolayers (180 min) is “more than 1.5”. In the series on Caco-2 cell monolayers (human, Caco-2, 180 min), the “secretion transport P app (BL→AP)” value was ~10^−6 cm/s. In addition, the efflux ratio at 180 min in series [1] came out at 12.5. Further, in series [1] (setting [3]), the Papp A→B at 180 min, 1 mg/mL was determined as 0.174 ± 0.019 ×10⁻⁶ cm/s and the Papp B→A at 180 min turned out to be 2.18 ± 0.228 ×10⁻⁶ cm/s. Also, the “peak concentration (C max)” value in series [2] is “lower than 10.47 μg/mL”.
